Entries after “also recorded” stand apart in the source; their conditions may differ.

In general, inhibition refers to the percentage by which the read-out fell short of the control.

One series relates to A. caninum L3. The series can be described thus: Drug assay in A. caninum (resumption of feeding of infective L3). The format is in vivo, Ancylostoma caninum. The conditions noted are these: for dauer recovery: A. caninum L3, agonist without serum and GSM. The method, then:
Hookworm infective L3 animals were collected from 1-4 wk old coproculture by the Baermann technique, and decontaminated with 1% HCL in BU buffer (50 mM Na2PO4/22 mM KH2PO4/70 mM NaCl, pH 6.8) (Hawdon and Schad (1991) in Developmental Adaptations in Nematodes., ed. C. A. Toft, A. A. a. L. B. (Oxford University Press, Oxford), pp. 274-298; and Hawdon and Schad (1991) J. Helm. Soc. Wash. 58:140-142) for 30 minutes at 22° C. Approximately 250 L3 animals were incubated in individual wells of a 96-well tissue culture plate containing 0.1 ml RPMI1640 tissue culture medium, supplemented with 0.25 mM HEPES pH 7.2, 100 U/ml penicillin, 100 μg/ml streptomycin, 100 μg/ml gentamycin, and 2.5 μg/ml amphotericin B. The L3 animals were activated to resume development and feeding by including 10% (v/v) canine serum and 25 mM S-methyl-glutathione (GSM; Hawdon et al. (1995) Exper. Parasitol. 80:205-211). Non-activated L3 animals were incubated in RPMI alone (i.e., without the stimulus). Stock solutions of the drugs were made in RPMI, and included in the incubation at the indicated concentrations. […] The L3 animals were incubated at 37° C. 5% CO2 for 24 hours. The percentage of feeding L3 animals was determined by incubating the L3 animals with 2.5 mg/ml FITC-BSA for 2-3 hours, followed by counting the number of L3 animals that had ingested the labeled BSA by microscopic examination under epi-fluorescent illumination (Hawdon and Schad (1990) J. Parasit. 76:394-398). Each treatment was done in triplicate, and each experiment was repeated at least once.

In another series the test system is C. elegans dauers. The series can be described thus: Dauer recovery assay on drug plates. It is filed as in vivo. As to conditions: for dauer recovery: C. elegans dauers induced by mutation or pheromone, drug plates; for dauer recovery of daf-2 dauers: daf-2(e1370) mutant dauers, all concentrations. The method, then:
Minimal media plates were used for the drug assays: 3.0 g NaCl, 20 g agarose (Sigma-Type II #A6877) and 970 ml of water. The autoclaved solution was cooled to 50-55° C. before 25 ml of 1M KPO4 (pH 6.0), 1.0 ml 1M CaCl2, 1.0 ml of 1M MgSO4, and 1 ml of 5 mg/ml cholesterol were added. In some assays, Escherichia coli (DH5α) bacteria arrested with streptomycin was added to each plate.
In some experiments, 100-200 eggs or synchronized L1s were put onto the drug plates. For all experiments described herein, about 10,000 L1s were placed in 10 ml of S Medium containing 1-2 ml of a 0.4% (w/v) solution of Escherichia coli DH5α bacteria in M9 solution (Wood (1988) (Cold Spring Harbor Laboratory Press, Cold Spring Harbor, N.Y.)) arrested with streptomycin, in a 25 ml flask on a rotating heated water bath at 25° C. For wild-type N2 dauers, 600 μl of the 0.4% bacterial solution and pheromone was also added to flask as described in Gottlieb and Ruvkun (1994) Genetics 137:107120. The pheromone preparation is a solution prepared as follows. Animals were grown in a large flask for several generations, and then spun down. The supernatant was boiled down to a brownish powder and then ethanol extracted. After 72 hours of liquid growth, animals were centrifuged and the supernatant removed. Animals were then resuspended in a 15 ml tube with a pre-heated 25° C. solution of 1% SDS and tubes were placed on a rocker at 25° C. for 30 minutes. Animals were centrifuged and the SDS removed. Animals were washed with either M9 or S medium (Wood (1988) (Cold Spring Harbor Laboratory Press, Cold Spring Harbor, N.Y.)) 4-6 times. After a final spin, 100-200 dauers were placed onto the drug plates without food. 24 and 48 hours later, plates were scored for the number of dauers and non-dauer adults.
For each strain tested, a control plate without any drug, with and without food was also tested. […] The assay was performed at 25° C., which means that the daf-c mutants are still under full dauer inducing conditions.

The subject of another series is T1, C. elegans DAF-16.
T1 sequence: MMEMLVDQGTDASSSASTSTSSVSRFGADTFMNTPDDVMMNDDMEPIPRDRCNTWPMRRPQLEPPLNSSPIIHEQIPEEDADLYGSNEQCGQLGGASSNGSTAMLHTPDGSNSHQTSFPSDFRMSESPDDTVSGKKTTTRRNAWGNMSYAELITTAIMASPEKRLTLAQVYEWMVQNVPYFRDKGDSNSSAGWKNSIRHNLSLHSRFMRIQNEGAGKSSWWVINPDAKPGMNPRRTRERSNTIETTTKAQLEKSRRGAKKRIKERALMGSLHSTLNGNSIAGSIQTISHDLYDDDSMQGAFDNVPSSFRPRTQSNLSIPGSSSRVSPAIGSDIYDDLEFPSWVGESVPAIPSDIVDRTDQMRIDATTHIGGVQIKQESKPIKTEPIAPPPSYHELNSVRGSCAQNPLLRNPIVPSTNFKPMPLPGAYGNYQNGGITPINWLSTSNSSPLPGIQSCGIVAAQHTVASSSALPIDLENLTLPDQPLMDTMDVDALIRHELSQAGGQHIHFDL

The subject of series [1] is C. elegans DAF-16 with the serine or threonine of the Akt/PKB consensus sites mutated to alanine.
Series [2] concerns C. elegans unc-86 mutants. The series can be described thus: 5HT accumulation in the NSM neuron of unc-86 mutants. It is filed as in vivo.
[3] abbreviates: wild-type pheromone-induced dauers.

Consider `O=C1CCCN1CC#CCN1CCCC1` [oxotremorine], for which the dauer recovery entry in the series with A. caninum L3 is “promotes dauer recovery”; with C. elegans dauers, “promoted dauer recovery; also recorded: promoted recovery of dauers induced by mutation as well as pheromone”. Besides, the “concentration of maximum recovery” value worked out at 5 mM in the series on A. caninum L3 (A. caninum L3 dauers), 5 mM in the series on C. elegans dauers (daf-7(e1372) dauers) and 1 mM in the series with C. elegans dauers (setting [3]). The Emax at 1000 µM with C. elegans dauers (Caenorhabditis elegans, daf-7(e1372), daf-10(e1387) double mutant, 1 mM oxotremorine, read-out: maximum response, recovery) is 13%. Besides, the results for the dauers that recover with C. elegans dauers (daf-1(m40) dauers in oxotremorine) and in the series on C. elegans dauers (daf-4(m63) dauers in oxotremorine) were 30% and 50%, respectively. The “dauer recovery of daf-2 dauers” value in the series on C. elegans dauers was “fails to recover at all concentrations”. Further, in the series on C. elegans dauers (daf-7(e1372) dauers, 1 mM oxotremorine), the dauers recovered is recorded as 40%.

With `C[C@@H]1O[C@H](C[N+](C)(C)C)C[C@H]1O` [muscarine], in the series with C. elegans dauers, the dauer recovery result is recorded as “promoted dauer recovery”.

Take `c1ccc([C@H]2CN3CCSC3=N2)cc1` [Levamisole, levamisole]: in the series with C. elegans dauers, the dauer recovery result is on record as “no effect on dauer recovery”.

As for `C[N+](C)(C)CCOC(N)=O` [carbachol], the dauer recovery result with C. elegans dauers is listed as “promoted recovery of dauers induced by mutation as well as pheromone”.

With `CN1[C@@H]2CC[C@H]1C[C@@H](OC(=O)C(CO)c1ccccc1)C2` (some centres unmarked) [atropine], in the series on A. caninum L3 (A. caninum L3, 0.5 mM arecoline and 1.0 mM atropine (increasing atropine in FIG. 44C)), the “recovery with arecoline plus atropine” value was “completely inhibited; also recorded: failed to recover”. Also, the “recovery / resumption of feeding” value in the series on A. caninum L3 (A. caninum L3, 10% serum and 25 mM GSM, atropine 0.5 mM) was “completely inhibited recovery”. The inhibition at 500 µM in the series on A. caninum L3 (Ancylostoma caninum, read-out: inhibition of recovery) was found to be 99.5%. The “inhibition of muscarinic agonist-induced dauer recovery” value with C. elegans dauers (C. elegans, 1 mM oxotremorine, increasing atropine) is “completely inhibited; also recorded: all of the drug-induced dauer recovery was inhibited”. Further, the “recovery induced by oxotremorine in combination with atropine” value in the series with C. elegans dauers (daf-7(e1372) dauers, 1 mM oxotremorine + 1 mM atropine) amounted to 5%. The “oxotremorine response in presence of atropine” value in the series with C. elegans dauers (daf-7(e1372) dauers, 1 mM oxotremorine + 5 mM atropine) is “completely abolished”. Further, the dauer larvae recovered in the series with C. elegans dauers (pheromone-induced dauers, bacterial food plus atropine, 25° C.) was 21%.

On to `CC[C@@H]1C(=O)OC[C@@H]1Cc1cncn1C` [pilocarpine], for which the dauer recovery result with A. caninum L3 was “failed to recover”; in the series on C. elegans dauers, “promoted dauer recovery; also recorded: promoted recovery of dauers induced by mutation as well as pheromone”. In addition, the “concentration of maximum recovery” value turned out to be 5 mM in the series on C. elegans dauers (daf-7(e1372) dauers) and 1 mM in the series on C. elegans dauers (setting [3]).

Turning to `COC(=O)C1=CCCN(C)C1` [arecoline], the values for the dauer recovery entry in the series with A. caninum L3 and in the series on C. elegans dauers were “promotes dauer recovery” and “promoted dauer recovery; also recorded: promoted recovery of dauers induced by mutation as well as pheromone”, respectively. Besides, the “maximal response lower than for the other agonists” value stood at 10 fold lower in the series on A. caninum L3 (A. caninum, FIG. 44B) and 10 fold lower in the series on C. elegans dauers (C. elegans, FIG. 44B). Besides, in the series with C. elegans dauers, the “dauer recovery of daf-2 dauers” value is given as “fails to recover at all concentrations”.

For human AKT, the in vitro phosphorylation result in the series with C. elegans DAF-16 is “human AKT will phosphorylate C. elegans DAF-16”; in series [1] it was “in vitro phosphorylation of DAF-16 (or fragments of DAF-16) is abolished”.

`CNCCC(Oc1ccc(C(F)(F)F)cc1)c1ccccc1` (centres unmarked) [Prozac]: in series [2], the “5HT accumulation in the NSM” value was “causes 5HT accumulation in the NSM to disappear”.

The values are drawn from patent US6861256B2, “Therapeutic and diagnostic tools for impaired glucose tolerance conditions” (The General Hospital Corporation, priority 1997, dated 2005).
